Assay results from article PMC7467243, “Response to and recovery from treatment in human liver-mimetic clinostat spheroids: a model for assessing repeated-dose drug toxicity” (Toxicology Research, 2020).

What was measured:
[1] = cited from earlier work
[2] = cited from earlier work; for Biological half-life (h): in vivo
HepG2–C3A spheroids = tested on: HepG2–C3A spheroids
Procedure: Three hundred 21-day old spheroids (corresponding to ~25 million cells or 3.5 mg protein) were gently pipetted (using a cut-tip) into each 10 ml bioreactor before treatment to provide ample material for analysis. To initiate drug treatment, the bioreactor rotation was stopped for 30 s to allow the spheroids to settle to the bottom of the bioreactor. […] Each narrow range experiment was carried out in duplicate and ATP was measured in technical triplicates for each sample. […] Data were normalized to the vehicle-treated control. Error bars in the figures show standard deviation.
Cell viability was measured based on their ability to produce ATP [37]. […] The cells were then lysed with 100 μl of lysis buffer (CellTiter-Glo luminescent cell viability assay, Promega, Fitchburg, WI, Cat. no. G7571) and shaken in the dark for 20 min. Before the luminescence was measured in a FluoStar OPTIMA (BMG Labtech, Ortenberg, Germany) using the following parameters: one kinetic window, 10 measurement cycles with 0.3 s of measurement interval time, 2-s delay per measurement, additional 0.5-s delay per position change (repeated twice for each measured plate). Replicates were performed as described under the ‘Drug treatment’ Section. The data were normalized with reference to a standard curve for ATP and to the untreated control.

[3] = cited from earlier work; remark: listed apart in the source
[4] = set-up: method as in PMID 22407198, PMID 12889529; details: therapeutic dose 4 g/day; cited from earlier work
HepG2/C3A spheroids = tested on: HepG2/C3A spheroids; set-up: method as in earlier work; details: cited from earlier work

## O=C(O)Cc1ccccc1Nc1c(Cl)cccc1Cl [Diclofenac]
[1]
  effectiveness as an anti-inflammatory agent compared with other non-steroidal anti-inflammatory drugs: 3-1000 ×
[2]
  Biological half-life (h): 1–2 h

## CN(C)C(=N)N=C(N)N [Metformin]
HepG2–C3A spheroids; 5 mg/mg (highest dose), glucose medium
  reduction in ATP production: 70%

## CC(=O)Nc1ccc(O)cc1 [Paracetamol]
[2]
  Biological half-life (h): 2–4 h
HepG2–C3A spheroids; four treatments at 48-h intervals killed the spheroids, relative to 20 mg paracetamol per mg protein
  chronically lethal dose: Half of this dose
HepG2–C3A spheroids; glucose medium
  acutely lethal dose: 20 mg paracetamol per mg protein
[3]
  Toxic dose, μg/ml in blood: 100 to 150 µg/mL
[4]
  blood concentration: 10000 to 25000 ng/mL

## [H]/N=C(/N)N/C(=N/[H])NCCc1ccccc1 [Phenformin]
[2]
  half-life: 7 h
  Biological half-life (h): 4–13 h

## CCCC(CCC)C(=O)O [VPA, valproic acid]
[2]
  Biological half-life (h): 10–20 h
[3]
  Toxic dose, μg/ml in blood: 40 to 100 µg/mL
HepG2/C3A spheroids
  acute toxicity threshold: 20 mg VPA per mg protein
  chronic toxicity threshold: 4 mg VPA per mg protein
